These results are taken from patent US20250059182A1, “SOS1 INHIBITORS” (Mirati Therapeutics, Inc., priority 2021, published 2025).

The target of assay [1] is T1, recombinant human SOS1 polypeptide (amino acids 560-1049) (Homo sapiens, UniProt Q07889).
T1 construct: corresponding to amino acids 560-1049, expressed in E. Coli; made in house; host or cells: E. coli
T1 sequence (Q07889 560-1049): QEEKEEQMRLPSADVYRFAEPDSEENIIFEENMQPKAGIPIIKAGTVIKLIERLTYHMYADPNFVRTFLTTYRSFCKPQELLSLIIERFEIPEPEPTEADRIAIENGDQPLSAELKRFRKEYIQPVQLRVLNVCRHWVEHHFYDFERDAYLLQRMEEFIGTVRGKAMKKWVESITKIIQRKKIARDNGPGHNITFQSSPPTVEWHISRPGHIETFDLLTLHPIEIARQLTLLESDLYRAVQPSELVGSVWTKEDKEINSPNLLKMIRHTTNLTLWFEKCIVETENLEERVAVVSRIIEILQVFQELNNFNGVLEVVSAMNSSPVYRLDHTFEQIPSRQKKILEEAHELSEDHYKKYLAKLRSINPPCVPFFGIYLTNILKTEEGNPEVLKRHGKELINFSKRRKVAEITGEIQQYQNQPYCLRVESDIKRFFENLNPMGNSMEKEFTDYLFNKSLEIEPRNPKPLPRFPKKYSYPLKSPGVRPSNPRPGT
The experiment in a line: HTRF displacement assay: inhibition of labeled tracer binding to SOS1.

Assay [2] deals with pERK in MKN1 cells. The experiment in a line: pERK inhibition, In-Cell Western (LI-COR Odyssey), MKN1 cells. The assay is classed as cell-based. The settings on record: Homo sapiens. In short, it runs like this:
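MKN1 cells were exposed for about 0.5–1 h at 37 °C to nine 3-fold dilutions starting at 10 µM. Cells were then fixed in formaldehyde, permeabilised with methanol, and immunostained for pERK and GAPDH with near-infrared secondary antibodies. GAPDH-normalised pERK signal relative to vehicle gave % inhibition, from which IC50 was fitted.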

The mark [3] stands for this setting: Table A, Morrison equation for competitive binding.
[4] abbreviates: MKN-1, Table B, MKN1 or H358 cells (table does not say which), 0.5-1 hour incubation, read-out: IC50 (nM), pERK inhibition.
The mark [5] stands for this setting: Table A1, Morrison equation for competitive binding.
Setting [6] is: MKN-1, Table B1, MKN1 or H358 cells (table does not say which), 0.5-1 hour incubation, read-out: IC50 (nM), pERK inhibition.

Counter-ions that a name gives are not always drawn. Like-named read-outs stand apart in the source and are kept apart here.

In the case of `Cc1c(C#N)cccc1[C@@H](C)Nc1nnc(N2CC[C@@H](N)C2)c2cnc(N3C[C@H]4C[C@@H]3CO4)cc12` [Example 5-1, 3-((R)-1-((4-((R)-3-aminopyrrolidin-1-yl)-7-((1R, 4R)-2-oxa-5-azabicyclo[2.2.1]heptan-5-yl)pyrido[3,4-d]pyridazin-1-yl)amino)ethyl)-2-methylbenzonitrile], the inhibition constant Ki in assay [1] (setting [3]) amounted to 0.505 nM. Moreover, the IC50 in assay [2] (setting [4]) came out at 1320 nM.

As to `Cc1c(C#N)cccc1[C@@H](C)Nc1nnc(N2CC[C@@H](N(C)C)C2)c2cnc(N3C[C@H]4C[C@@H]3CO4)cc12` [Example 5-2, 3-((R)-1-((7-((1R, 4R)-2-oxa-5-azabicyclo[2.2.1]heptan-5-yl)-4-((R)-3-(dimethylamino)pyrrolidin-1-yl)pyrido[3,4-d]pyridazin-1-yl)amino)ethyl)-2-methylbenzonitrile], in assay [1] (setting [3]), the inhibition constant (Ki) is 0.973 nM. In addition, the IC50 in assay [2] (setting [4]) is 115 nM.

Regarding `Cc1c(C#N)cccc1[C@@H](C)Nc1nnc(CN(C)C)c2cnc(N3CC4(COC4)C3)cc12` [Example 6-1, (R)-3-(1-((4-((dimethylamino)methyl)-7-(2-oxa-6-azaspiro[3.3]heptan-6-yl)pyrido[3,4-d]pyridazin-1-yl)amino)ethyl)-2-methylbenzonitrile], the Ki in assay [1] (setting [3]) is 18.3 nM. Moreover, the IC50 in assay [2] (setting [4]) amounted to 171 nM.

Regarding `COc1cc2c(C)nnc(N[C@H](C)c3cccc(C#N)c3C)c2cc1OC` [Example 6-7, (R)-3-(1-((6,7-dimethoxy-4-methylphthalazin-1-yl)amino)ethyl)-2-methylbenzonitrile], the Ki in assay [1] (setting [3]) was determined as 14.5 nM. The half-inhibitory concentration (IC50) in assay [2] (setting [4]) was found to be 177 nM.

As to `Cc1c(C#N)cccc1[C@@H](C)Nc1nnc(C)c2cnc(C3CCN(C)CC3)cc12` [Example 6-14, (R)-2-methyl-3-(1-((4-methyl-7-(1-methylpiperidin-4-yl)pyrido[3,4-d]pyridazin-1-yl)amino)ethyl)benzonitrile], the Ki in assay [1] (setting [3]) came to 8.89 nM. For the same molecule, in assay [2] (setting [4]), the half-inhibitory concentration (IC50) worked out at 468 nM.

For `Cc1nnc(N[C@H](C)c2cccc(C(F)(F)F)c2F)c2cc(N3CCN(C)CC3)c(C#N)cc12` [Example 6-17, (R)-1-((1-(2-fluoro-3-(trifluoromethyl)phenyl)ethyl)amino)-4-methyl-7-(4-methylpiperazin-1-yl)phthalazine-6-carbonitrile], in assay [1] (setting [3]), the inhibition constant Ki stood at 2.29 nM. In assay [2] (setting [4]), the IC50 is 139 nM.

In the case of `Cc1nnc(N[C@H](C)c2cccc(C(F)(F)F)c2F)c2cc(N3CCOCC3)c(C#N)cc12` [Example 6-18, (R)-1-((1-(2-fluoro-3-(trifluoromethyl)phenyl)ethyl)amino)-4-methyl-7-morpholinophthalazine-6-carbonitrile], the Ki in assay [1] (setting [3]) is 7.06 nM. Moreover, in assay [2] (setting [4]), the concentration for half-maximal inhibition (IC50) worked out at 311 nM.

In the case of `Cc1c(C#N)cccc1[C@@H](C)Nc1nnc(C)c2cc(C#N)c(N3CCN(C)CC3)cc12` [Example 6-19, (R)-1-((1-(3-cyano-2-methylphenyl)ethyl)amino)-4-methyl-7-(4-methylpiperazin-1-yl)phthalazine-6-carbonitrile], in assay [1] (setting [3]), the Ki worked out at 2.94 nM. In assay [2] (setting [4]), the half-maximal inhibitory concentration (IC50) turned out to be 222 nM.

On to `Cc1nnc(N[C@H](C)c2cccc(C(F)(F)F)c2F)c2cc(N3C[C@H]4C[C@@H]3CO4)c(C#N)cc12` [Example 6-20, 7-((1R,4R)-2-oxa-5-azabicyclo[2.2.1]heptan-5-yl)-1-(((R)-1-(2-fluoro-3-(trifluoromethyl)phenyl)ethyl)amino)-4-methylphthalazine-6-carbonitrile], for which the Ki in assay [1] (setting [3]) is 1.4 nM. Moreover, the IC50 in assay [2] (setting [4]) came out at 218 nM.

Turning to `Cc1c(C#N)cccc1[C@@H](C)Nc1nnc(C)c2cc(Cl)c(N3CCN(C)CC3)cc12` [Example 7-1, (R)-3-(1-((6-chloro-4-methyl-7-(4-methylpiperazin-1-yl)phthalazin-1-yl)amino)ethyl)-2-methylbenzonitrile], the Ki in assay [1] (setting [3]) amounted to 1.79 nM. Further, the IC50 in assay [2] (setting [4]) is 150 nM.

In the case of `Cc1c(C#N)cccc1[C@@H](C)Nc1nnc(C)c2cnc(N3CCCCC3)cc12` [Example P-3, (R)-2-methyl-3-(1-((4-methyl-7-(piperidin-1-yl)pyrido[3,4-d]pyridazin-1-yl)amino)ethyl)benzonitrile], the inhibitory constant (Ki) in assay [1] (setting [5]) worked out at 2.22 nM. In assay [2] (setting [6]), the IC50 was 302 nM.

Consider `COC1(C)CCN(c2cc3c(N[C@H](C)c4cccc(C#N)c4C)nnc(C)c3cn2)CC1` [Example P-9, (R)-3-(1-((7-(4-methoxy-4-methylpiperidin-1-yl)-4-methylpyrido[3,4-d]pyridazin-1-yl)amino)ethyl)-2-methylbenzonitrile, formic acid salt], for which the Ki in assay [1] (setting [5]) stood at 0.989 nM. In addition, the concentration for half-maximal inhibition (IC50) in assay [2] (MKN-1, read-out: IC50 (nM), pERK inhibition) worked out at 90.2 nM.

Consider `COC1CCN(c2cc3c(N[C@H](C)c4cccc(C#N)c4C)nnc(C)c3cn2)CC1` [Example P-15, (R)-3-(1-((7-(4-methoxypiperidin-1-yl)-4-methylpyrido[3,4-d]pyridazin-1-yl)amino)ethyl)-2-methylbenzonitrile], for which, in assay [1] (setting [5]), the Ki came out at 1.12 nM. Further, in assay [2] (setting [6]), the concentration for half-maximal inhibition (IC50) came to 66.1 nM.

Regarding `Cc1c(C#N)cccc1[C@@H](C)Nc1nnc(C)c2cnc(N3CCn4cnnc4C3)cc12` [Example P-21, (R)-3-(1-((7-(5,6-dihydro-[1,2,4]triazolo[4,3-a]pyrazin-7(8H)-yl)-4-methylpyrido[3,4-d]pyridazin-1-yl)amino)ethyl)-2-methylbenzonitrile], the Ki in assay [1] (setting [5]) is 2.17 nM. Also, the concentration for half-maximal inhibition (IC50) in assay [2] (setting [6]) was determined as 2560 nM.

On to `Cc1c(C#N)cccc1[C@@H](C)Nc1nnc(C)c2cnc(N3CCn4c(C)nnc4C3)cc12` [Example P-27, (R)-2-methyl-3-(1-((4-methyl-7-(3-methyl-5,6-dihydro-[1,2,4]triazolo[4,3-a]pyrazin-7(8H)-yl)pyrido[3,4-d]pyridazin-1-yl)amino)ethyl)benzonitrile], for which the Ki in assay [1] (setting [5]) came to 1.26 nM. In assay [2] (setting [6]), the IC50 was more than 10000 nM.

For `Cc1c(C#N)cccc1[C@@H](C)Nc1nnc(C)c2cnc(N3CCn4c(nnc4C(F)(F)F)C3)cc12` [Example P-33, (R)-2-methyl-3-(1-((4-methyl-7-(3-(trifluoromethyl)-5,6-dihydro-[1,2,4]triazolo[4,3-a]pyrazin-7(8H)-yl)pyrido[3,4-d]pyridazin-1-yl)amino)ethyl)benzonitrile], the inhibitory constant (Ki) in assay [1] (setting [5]) worked out at 6.92 nM. In addition, the IC50 in assay [2] (setting [6]) is 121 nM.

On to `Cc1c(C#N)cccc1[C@@H](C)Nc1nnc(C)c2cnc(N3CCc4c(cnn4C)C3)cc12` [Example P-39, (R)-2-methyl-3-(1-((4-methyl-7-(1-methyl-1,4,6,7-tetrahydro-5H-pyrazolo[4,3-c]pyridin-5-yl)pyrido[3,4-d]pyridazin-1-yl)amino)ethyl)benzonitrile], for which, in assay [1] (setting [5]), the inhibition constant (Ki) is 1.1 nM. Besides, the IC50 in assay [2] (setting [6]) was determined as 96.9 nM.

For `Cc1c(C#N)cccc1[C@@H](C)Nc1nnc(C)c2cnc(N3CCc4c(ncn4C)C3)cc12` [Example P-45, (R)-2-methyl-3-(1-((4-methyl-7-(1-methyl-1,4,6,7-tetrahydro-5H-imidazo[4,5-c]pyridin-5-yl)pyrido[3,4-d]pyridazin-1-yl)amino)ethyl)benzonitrile], in assay [1] (setting [5]), the inhibition constant Ki amounted to 0.777 nM. Also, the half-maximal inhibitory concentration (IC50) in assay [2] (setting [6]) is 176 nM.

In the case of `Cc1c(C#N)cccc1[C@@H](C)Nc1nnc(C)c2cnc(N3CCc4ncn(C)c4C3)cc12` [Example P-57, (R)-2-methyl-3-(1-((4-methyl-7-(3-methyl-3,4,6,7-tetrahydro-5H-imidazo[4,5-c]pyridin-5-yl)pyrido[3,4-d]pyridazin-1-yl)amino)ethyl)benzonitrile], the inhibition constant (Ki) in assay [1] (setting [5]) stood at 1.17 nM. For the same molecule, in assay [2] (setting [6]), the IC50 was determined as 914 nM.

Regarding `COC1(c2cc3c(N[C@H](C)c4cccc(C#N)c4C)nnc(C)c3cn2)CCN(C)CC1` [Example P-69, (R)-3-(1-((7-(4-methoxy-1-methylpiperidin-4-yl)-4-methylpyrido[3,4-d]pyridazin-1-yl)amino)ethyl)-2-methylbenzonitrile], the Ki in assay [1] (setting [5]) worked out at 51.8 nM. In assay [2] (setting [6]), the concentration for half-maximal inhibition (IC50) turned out to be 849 nM.

On to `COC1(c2cc3c(N[C@H](C)c4cccc(C#N)c4C)nnc(C)c3cn2)CCN(C(C)=O)CC1` [Example P-75, (R)-3-(1-((7-(1-acetyl-4-methoxypiperidin-4-yl)-4-methylpyrido[3,4-d]pyridazin-1-yl)amino)ethyl)-2-methylbenzonitrile], for which the Ki in assay [1] (setting [5]) was determined as 17.6 nM. In assay [2] (setting [6]), the IC50 was 568 nM.

In the case of `COC1(c2cc3c(N[C@H](C)c4cccc(C#N)c4C)nnc(C)c3cn2)CCOCC1` [Example P-81, (R)-3-(1-((7-(4-methoxytetrahydro-2H-pyran-4-yl)-4-methylpyrido[3,4-d]pyridazin-1-yl)amino)ethyl)-2-methylbenzonitrile], the Ki in assay [1] (setting [5]) was found to be 61.7 nM. Further, the 50% inhibitory concentration (IC50) in assay [2] (setting [6]) is 565 nM.

For `COC1(c2cc3c(N[C@H](C)c4cccc(C#N)c4C)nnc(C)c3cc2F)CCN(C)CC1` [Example P-153, (R)-3-(1-((6-fluoro-7-(4-methoxy-1-methylpiperidin-4-yl)-4-methylphthalazin-1-yl)amino)ethyl)-2-methylbenzonitrile], the Ki in assay [1] (setting [5]) is 16.6 nM. Moreover, the half-inhibitory concentration (IC50) in assay [2] (setting [6]) stood at 909 nM.

In general, Ki refers to the dissociation constant of the complex between target and ligand, obtained from inhibition or displacement. A word on the IC50: it is the point on the concentration scale where inhibition reaches its midpoint.
